The text below walks through data of US8241680B2, “Nutraceutical product containing anatabine and yerba maté” (priority 2010, dated 2012).

Data set [1] can be described thus: Stability analysis of anatabine base with and without BHT as a preservative. It is filed as physicochemical. Here is the method: See, for example, Tables 3 and 4 in Examples 4 and 5, respectively. Purity of the anatabine may be retained for extended periods of time. […] Further, anatabine remains stable when stored at a variety of temperatures. For example, the anatabine retains the indicated purity when stored at −20° C. to −10° C., −20° C. to 0° C., −10° C. to 0° C., 0° C. to 4° C., 2° C. to 8° C., 5° C. to 10° C., 10° C. to 15° C., 15° C. to 25° C., or 25° C. to 28° C. Stability is determined by any suitable art-recognized method. For example, anatabine stability may be monitored by high performance liquid chromatography (HPLC), liquid chromatography-mass spectroscopy (LC-MS), or nuclear magnetic resonance (NMR).
Anatabine base stability was analyzed with and without BHT (3,5-di-tert-butyl-4-hydroxytoluene). The initial purity of BHT-free anatabine base was 94.95%. The initial purity of anatabine base with BHT was 94.87%.

A short description of data set [2]: Stability analysis of Formula I (purity by HPLC on storage). Format: physicochemical. The source says: Several batches of Formula I produced by reacting benzophenoneimine with aminomethylpyridine in the absence of benzene were stored refrigerated and also at room temperature.

Regarding `C1=CCC(c2cccnc2)NC1` (stereo not shown) [anatabine base, anatabine], the results for the Initial purity in data set [1] (BHT-free) and in data set [1] (with BHT) were 94.95% and 94.87%, respectively. In addition, the “Purity (%) (with BHT)” value was 93.26% in data set [1] (day 1, 2-8° C., with BHT); 93.27% in data set [1] (day 1, 25-28° C., with BHT); 94.26% in data set [1] (day 1, −20° C., with BHT); 94.83% in data set [1] (day 2, 2-8° C., with BHT); 92.73% in data set [1] (day 2, 25-28° C., with BHT); 94.73% in data set [1] (day 2, −20° C., with BHT). For the same molecule, the “Purity (%) (with BHT)” value in data set [1] (day 3, 2-8° C., with BHT) was 94.26%; in data set [1] (day 3, 25-28° C., with BHT), 87.44%; in data set [1] (day 3, −20° C., with BHT) it was 94.62%; in data set [1] (day 12, 2-8° C., with BHT) it was 94.18%; in data set [1] (day 12, 25-28° C., with BHT), 85.10%; in data set [1] (day 12, −20° C., with BHT) it was 94.74%. Further, the “Purity (%) (without BHT)” value in data set [1] (day 1, 2-8° C.) is reported as 94.44%; in data set [1] (day 1, 25-28° C.) it was 89.63%; in data set [1] (day 1, −20° C.), 93.90%; in data set [1] (day 2, 2-8° C.), 94.05%; in data set [1] (day 2, 25-28° C.), 87.59%; in data set [1] (day 2, −20° C.) it was 94.62%. Moreover, the “Purity (%) (without BHT)” value stood at 91.65% in data set [1] (day 3, 2-8° C.); 80.74% in data set [1] (day 3, 25-28° C.); 93.87% in data set [1] (day 3, −20° C.); 90.12% in data set [1] (day 12, 2-8° C.); 79.59% in data set [1] (day 12, 25-28° C.); 94.01% in data set [1] (day 12, −20° C.).
Take `c1ccc(C(=NCc2cccnc2)c2ccccc2)cc1` [Formula I, benzylhydrylidene-pyridin-3-ylmethyl-amine]: the “Purity (%) (stored at 2-8° C.)” value is given as 88.61% in data set [2] (day 1, 2-8° C.); 88.83% in data set [2] (day 2, 2-8° C.); 88.30% in data set [2] (day 3, 2-8° C.); 88.83% in data set [2] (day 6, 2-8° C.); 88.75% in data set [2] (day 12, 2-8° C.); 88.46% in data set [2] (day 18, 2-8° C.). Also, the “Purity (%) (stored at 25-28° C.)” value in data set [2] (day 1, 25-28° C.) is 88.93%; in data set [2] (day 2, 25-28° C.), 85.49%; in data set [2] (day 3, 25-28° C.) it was 88.02%; in data set [2] (day 6, 25-28° C.), 86.62%; in data set [2] (day 12, 25-28° C.) it was 87.47%; in data set [2] (day 18, 25-28° C.), 87.25%. In data set [2] (refrigerated), the Purity on storage result is listed as “constant”. Also, in data set [2] (room temperature), the “Deviation of purity on storage” value is 1-2%.
